Experimental data from ChEMBL document CHEMBL1201862, “PubChem BioAssay data set” (2004).
The source made the active and inactive calls.

Key:
[1] = biological target: T1, Replicative DNA helicase DnaB (Mycobacterium tuberculosis, UniProt P9WMR3); assay: DnaB intein splicing inhibitors, dose response, biochemical, cell-free fluorescence (AID 449749); type: functional
T1 sequence (P9WMR3 whole entry): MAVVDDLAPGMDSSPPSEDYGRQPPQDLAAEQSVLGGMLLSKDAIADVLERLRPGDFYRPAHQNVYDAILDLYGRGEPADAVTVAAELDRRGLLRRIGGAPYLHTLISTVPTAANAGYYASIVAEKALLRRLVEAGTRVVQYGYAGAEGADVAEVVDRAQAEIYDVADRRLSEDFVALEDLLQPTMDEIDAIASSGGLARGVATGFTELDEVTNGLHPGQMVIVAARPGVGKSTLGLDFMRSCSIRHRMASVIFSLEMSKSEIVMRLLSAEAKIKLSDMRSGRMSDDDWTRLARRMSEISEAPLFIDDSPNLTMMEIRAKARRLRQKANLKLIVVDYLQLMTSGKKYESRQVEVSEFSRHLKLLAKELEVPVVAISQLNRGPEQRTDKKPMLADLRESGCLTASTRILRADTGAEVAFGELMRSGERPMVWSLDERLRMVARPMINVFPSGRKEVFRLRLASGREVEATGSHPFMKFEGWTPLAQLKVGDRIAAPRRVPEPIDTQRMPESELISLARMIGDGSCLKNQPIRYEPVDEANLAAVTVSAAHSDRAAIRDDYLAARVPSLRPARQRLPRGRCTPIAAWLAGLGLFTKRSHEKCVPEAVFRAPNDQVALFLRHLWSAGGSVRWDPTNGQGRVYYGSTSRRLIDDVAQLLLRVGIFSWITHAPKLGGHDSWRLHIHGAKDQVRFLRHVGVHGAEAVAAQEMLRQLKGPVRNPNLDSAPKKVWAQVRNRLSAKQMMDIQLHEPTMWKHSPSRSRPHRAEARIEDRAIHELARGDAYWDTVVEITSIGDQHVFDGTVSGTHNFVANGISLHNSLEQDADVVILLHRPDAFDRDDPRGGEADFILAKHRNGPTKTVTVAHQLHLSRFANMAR

Protein RecA = biological target: T2, Protein RecA (Mycobacterium tuberculosis, UniProt P9WHJ3); assay: Fluorescence Cell-Free Homogeneous Dose Retest to Identify Inhibitors of RecA-Intein Splicing Activity. [Related pubchem assays (depositor defined):AID2097, AID2223, AID489010, AID492950]; type: functional
T2 sequence (P9WHJ3 whole entry): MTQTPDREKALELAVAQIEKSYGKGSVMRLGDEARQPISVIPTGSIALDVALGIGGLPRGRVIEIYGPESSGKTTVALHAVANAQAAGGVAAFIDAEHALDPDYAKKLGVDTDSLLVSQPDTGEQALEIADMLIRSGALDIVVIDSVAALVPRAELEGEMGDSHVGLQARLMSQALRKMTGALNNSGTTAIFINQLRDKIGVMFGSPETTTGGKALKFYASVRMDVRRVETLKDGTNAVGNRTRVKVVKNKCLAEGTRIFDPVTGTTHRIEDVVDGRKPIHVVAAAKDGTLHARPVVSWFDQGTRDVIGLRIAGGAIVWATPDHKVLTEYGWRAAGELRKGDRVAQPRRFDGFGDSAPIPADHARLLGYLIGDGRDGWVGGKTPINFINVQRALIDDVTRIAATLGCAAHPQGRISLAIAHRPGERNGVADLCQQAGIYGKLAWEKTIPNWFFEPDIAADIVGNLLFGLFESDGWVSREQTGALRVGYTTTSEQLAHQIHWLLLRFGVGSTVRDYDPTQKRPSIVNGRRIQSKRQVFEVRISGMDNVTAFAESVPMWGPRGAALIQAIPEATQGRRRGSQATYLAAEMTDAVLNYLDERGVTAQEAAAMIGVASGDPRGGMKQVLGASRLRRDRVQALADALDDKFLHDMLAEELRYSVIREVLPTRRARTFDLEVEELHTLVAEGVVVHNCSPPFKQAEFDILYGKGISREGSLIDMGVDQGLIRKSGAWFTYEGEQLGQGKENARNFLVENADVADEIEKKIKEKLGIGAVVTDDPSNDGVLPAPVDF

Genome polyprotein = Genome polyprotein (dengue virus type 2, UniProt P29990); assay: flavivirus cap methylation enzyme inhibition – biochemical, confirmation dose response, primary screen (AID 588689); type: functional
Sequence of Genome polyprotein (P29990 2492-3391 limits assumed): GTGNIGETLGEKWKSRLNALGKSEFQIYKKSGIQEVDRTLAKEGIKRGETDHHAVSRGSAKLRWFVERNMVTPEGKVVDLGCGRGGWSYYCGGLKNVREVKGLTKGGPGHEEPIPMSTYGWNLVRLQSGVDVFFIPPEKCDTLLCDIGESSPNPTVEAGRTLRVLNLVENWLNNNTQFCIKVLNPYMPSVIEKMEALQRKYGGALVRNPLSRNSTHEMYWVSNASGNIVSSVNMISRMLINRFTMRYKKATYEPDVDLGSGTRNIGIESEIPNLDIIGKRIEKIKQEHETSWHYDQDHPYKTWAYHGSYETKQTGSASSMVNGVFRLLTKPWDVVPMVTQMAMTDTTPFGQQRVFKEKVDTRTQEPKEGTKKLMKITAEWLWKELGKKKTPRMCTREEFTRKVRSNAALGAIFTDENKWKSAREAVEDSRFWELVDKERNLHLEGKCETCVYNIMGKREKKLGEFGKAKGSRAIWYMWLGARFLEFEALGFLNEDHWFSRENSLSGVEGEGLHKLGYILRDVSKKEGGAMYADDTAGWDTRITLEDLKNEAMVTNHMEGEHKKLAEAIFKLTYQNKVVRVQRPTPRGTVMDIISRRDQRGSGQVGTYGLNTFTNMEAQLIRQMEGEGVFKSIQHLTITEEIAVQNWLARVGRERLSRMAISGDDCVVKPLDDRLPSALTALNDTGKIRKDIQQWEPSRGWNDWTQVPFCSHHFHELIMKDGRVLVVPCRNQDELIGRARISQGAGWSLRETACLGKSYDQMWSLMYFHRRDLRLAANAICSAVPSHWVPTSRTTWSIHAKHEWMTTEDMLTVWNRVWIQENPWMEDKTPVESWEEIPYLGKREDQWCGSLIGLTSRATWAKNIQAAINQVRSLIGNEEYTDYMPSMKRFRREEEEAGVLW

[2] = biological target: T3, Polyadenylate-binding protein 1 (Homo sapiens, UniProt P11940); assay: MLLE binding blockers, Cy5 peptide tracer – biochemical, fluorescence polarization, Cy5-PAM2 peptide, secondary, miRNA deadenylation inhibitor project, dose response (AID 602260); type: functional; conditions: read-out: IC50_Mean
T3 sequence (P11940 whole entry, the tested form may be a part): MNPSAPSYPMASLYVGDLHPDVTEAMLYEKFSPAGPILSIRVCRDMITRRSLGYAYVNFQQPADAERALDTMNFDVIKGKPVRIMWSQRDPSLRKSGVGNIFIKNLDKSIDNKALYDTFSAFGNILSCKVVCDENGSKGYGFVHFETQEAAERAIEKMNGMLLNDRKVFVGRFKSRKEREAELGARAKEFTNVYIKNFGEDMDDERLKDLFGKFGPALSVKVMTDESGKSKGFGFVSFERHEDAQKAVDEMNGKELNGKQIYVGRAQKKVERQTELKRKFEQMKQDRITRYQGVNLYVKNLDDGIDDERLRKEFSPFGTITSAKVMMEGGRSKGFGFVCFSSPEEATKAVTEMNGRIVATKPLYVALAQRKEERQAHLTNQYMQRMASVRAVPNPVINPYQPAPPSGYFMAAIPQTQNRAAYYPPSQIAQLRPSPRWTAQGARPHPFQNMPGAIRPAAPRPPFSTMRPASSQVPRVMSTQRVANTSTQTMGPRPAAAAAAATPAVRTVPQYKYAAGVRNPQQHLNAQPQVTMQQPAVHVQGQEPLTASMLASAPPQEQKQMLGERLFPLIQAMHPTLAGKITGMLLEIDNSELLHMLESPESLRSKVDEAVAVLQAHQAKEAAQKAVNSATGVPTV

[3] = biological target: T3, Polyadenylate-binding protein 1; assay: MLLE domain peptide-binding blockers, IC50 – biochemical, fluorescence polarization, FITC-PAM2 peptide, dose response (AID 602259); type: functional; conditions: read-out: IC50_Mean
[4] = biological target: T4, Tyrosyl-DNA phosphodiesterase 2 (Homo sapiens, UniProt O95551); assay: potency against TDP2 phosphodiesterase activity – biochemical, epi absorbance, IC50, dose response (AID 743297)
T4 sequence (O95551 whole entry): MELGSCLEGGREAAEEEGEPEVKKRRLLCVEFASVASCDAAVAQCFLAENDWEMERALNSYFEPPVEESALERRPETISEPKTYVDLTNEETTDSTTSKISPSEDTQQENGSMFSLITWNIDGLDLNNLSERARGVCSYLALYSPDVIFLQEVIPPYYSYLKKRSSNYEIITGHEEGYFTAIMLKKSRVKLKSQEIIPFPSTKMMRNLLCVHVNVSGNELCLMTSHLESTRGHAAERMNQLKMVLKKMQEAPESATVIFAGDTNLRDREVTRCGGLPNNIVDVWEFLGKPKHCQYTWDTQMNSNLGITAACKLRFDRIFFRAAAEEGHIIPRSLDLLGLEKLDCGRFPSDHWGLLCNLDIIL

Coagulation factor XII = biological target: T5, Coagulation factor XII (Homo sapiens, UniProt P00748); type: functional;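 also: activated factor XIIa alpha cleaving a fluorogenic AMC peptide substrate; inhibitor potency from loss of enzyme activity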
T5 sequence (P00748 whole entry): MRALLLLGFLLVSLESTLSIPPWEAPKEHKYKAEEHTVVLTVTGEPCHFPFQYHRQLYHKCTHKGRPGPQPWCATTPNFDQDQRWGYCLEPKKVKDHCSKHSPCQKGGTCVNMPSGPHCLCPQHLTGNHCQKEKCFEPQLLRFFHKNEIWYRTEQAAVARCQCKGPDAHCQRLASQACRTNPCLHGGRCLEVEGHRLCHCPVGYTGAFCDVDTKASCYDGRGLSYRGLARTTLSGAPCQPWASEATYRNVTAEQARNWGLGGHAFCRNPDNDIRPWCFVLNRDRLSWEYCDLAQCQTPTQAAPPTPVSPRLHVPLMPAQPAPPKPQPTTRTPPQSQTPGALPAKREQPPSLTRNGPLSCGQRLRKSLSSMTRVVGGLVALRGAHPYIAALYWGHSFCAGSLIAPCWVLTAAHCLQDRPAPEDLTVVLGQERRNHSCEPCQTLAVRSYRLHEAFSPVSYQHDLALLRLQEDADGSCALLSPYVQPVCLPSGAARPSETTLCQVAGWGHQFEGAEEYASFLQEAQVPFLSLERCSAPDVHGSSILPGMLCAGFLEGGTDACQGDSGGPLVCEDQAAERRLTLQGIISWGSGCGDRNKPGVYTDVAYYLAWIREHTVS

Mu-type opioid receptor = Mu-type opioid receptor (Homo sapiens, UniProt P35372); type: functional, cell-based;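 also: U2OS cells with beta-arrestin recruitment to OPRM1 by beta-gal complementation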
Sequence of Mu-type opioid receptor (P35372 whole entry): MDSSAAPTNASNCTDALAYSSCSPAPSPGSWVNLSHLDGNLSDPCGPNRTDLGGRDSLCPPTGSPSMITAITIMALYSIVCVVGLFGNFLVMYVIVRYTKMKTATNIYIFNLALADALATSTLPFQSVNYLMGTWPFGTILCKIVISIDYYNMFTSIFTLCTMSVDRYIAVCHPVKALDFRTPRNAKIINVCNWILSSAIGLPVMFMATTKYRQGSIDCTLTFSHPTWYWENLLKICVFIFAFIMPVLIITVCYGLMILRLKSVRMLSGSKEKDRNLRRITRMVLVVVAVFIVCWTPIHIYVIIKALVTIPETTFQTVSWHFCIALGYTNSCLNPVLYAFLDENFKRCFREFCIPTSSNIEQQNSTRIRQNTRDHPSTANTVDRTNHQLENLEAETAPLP

[5] = biological target: 5-hydroxytryptamine receptor 2A (Mus musculus, UniProt P35363); type: functional, cell-based;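 also: CHO-K1 cells with tagged receptor and beta-arrestin; agonist potency measured as compound-induced activation of the receptor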
Sequence of 5-hydroxytryptamine receptor 2A (P35363 whole entry): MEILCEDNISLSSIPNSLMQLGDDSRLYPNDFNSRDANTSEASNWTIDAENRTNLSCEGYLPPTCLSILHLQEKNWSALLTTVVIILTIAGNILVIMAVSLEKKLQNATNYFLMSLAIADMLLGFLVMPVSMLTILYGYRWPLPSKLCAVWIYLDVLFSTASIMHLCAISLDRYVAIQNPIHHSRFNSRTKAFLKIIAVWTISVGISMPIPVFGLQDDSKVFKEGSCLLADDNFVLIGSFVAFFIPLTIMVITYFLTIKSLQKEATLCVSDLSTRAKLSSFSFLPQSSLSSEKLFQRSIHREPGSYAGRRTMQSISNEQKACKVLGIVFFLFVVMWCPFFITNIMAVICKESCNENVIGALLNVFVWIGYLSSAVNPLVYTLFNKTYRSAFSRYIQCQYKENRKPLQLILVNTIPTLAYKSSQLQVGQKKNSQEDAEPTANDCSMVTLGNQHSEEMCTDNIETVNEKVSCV

[6] = luciferase reporter signal suppression in cells – H4 neuroglioma cells, luminescence, dose response (AID 1990); type: functional, cell-based
[7] = Luminescence Cell-Based Dose Response HTS to Identify Inhibitors of 5'UTR Stem-Loop Driven Prion Protein mRNA Translation in H4 Neuroglioblastoma Cells. [Related pubchem assays: 1827 (Project Summary), 1813 (Primary HTS)]; type: functional
[8] = alpha-synuclein stem-loop luciferase translation blockers – H4 neuroglioma cells, luminescence, confirmation (AID 1988); type: functional, cell-based
[9] = microbe, parasite or virus in culture; type: functional; conditions: Mycobacterium tuberculosis
[10] = Luminescence Cell-Based Dose Retest to Confirm Inhibitors of Cancer Stem Cells. [Related pubchem assays (depositor defined):AID2717, AID2721]; type: functional; conditions: Homo sapiens
HEK293 = assay: EBV LMP1 TES2 canonical NF-kB signalling blockers – cell-based, HEK293, luciferase, cherry-pick, dose response (AID 588343); type: functional; conditions: Homo sapiens
INS1 = assay: INS-1E survival protection against cytokine death – cell-based, luminescence, retest, dose response (AID 449756); type: functional; conditions: Rattus norvegicus;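 also: cell death triggered by IL-1 beta plus TNF-alpha plus IFN-gamma mixture; protective hits raise ATP signal compared with cytokine alone wells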
[11] = blockers of HIV-1 envelope-mediated cell-cell fusion – cherry-pick, dose response (AID 652057); type: functional, cell-based
[12] = viability loss in CEM21 cells – cell-based, CellTiter-Glo luminescence, cherry-picked, cytotoxicity control for viral fusion inhibitor project, dose response (AID 652042); type: functional;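 also: potency for signal decrease meaning cytotoxicity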
[13] = blockers of HIV-1 ZM109 envelope-driven cell-cell fusion – HeLa effector, CEM target cells, luciferase, cherry-pick, dose response (AID 652058); type: functional, cell-based;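 also: luciferase signal from HIV-1 Env mediated cell-cell fusion of effector and target cells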
Paired box protein Pax-8 = Paired box protein Pax-8 (Homo sapiens, UniProt Q06710); assay: PAX8 transcriptional activity inhibition in RMG-I – RMG-I cells, luciferase, cherry-pick, dose response (AID 687027); type: functional, cell-based;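 also: luciferase reporter driven by Pax8 target thyroperoxidase promoter measured by SteadyGlo luminescence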
Sequence of Paired box protein Pax-8 (Q06710 whole entry, the tested form may be a part): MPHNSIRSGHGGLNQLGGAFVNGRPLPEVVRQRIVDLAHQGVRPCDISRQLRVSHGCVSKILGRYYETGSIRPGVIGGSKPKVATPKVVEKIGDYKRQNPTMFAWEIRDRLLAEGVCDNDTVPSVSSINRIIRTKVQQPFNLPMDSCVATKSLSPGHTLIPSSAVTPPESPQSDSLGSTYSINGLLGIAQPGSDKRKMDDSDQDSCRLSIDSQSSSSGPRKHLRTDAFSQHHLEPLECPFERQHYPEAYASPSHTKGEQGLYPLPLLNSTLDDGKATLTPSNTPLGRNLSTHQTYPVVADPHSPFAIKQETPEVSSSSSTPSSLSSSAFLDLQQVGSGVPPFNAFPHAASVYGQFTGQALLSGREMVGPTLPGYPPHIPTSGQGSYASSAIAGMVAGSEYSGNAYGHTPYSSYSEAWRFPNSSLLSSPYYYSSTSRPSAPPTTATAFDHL

[14] = off-target signal loss in HeLa-CEM21 co-culture – HeLa F-luc CTL cells, cherry-picked, counter-screen for HIV-1 Env fusion inhibitor project, dose response (AID 652040); type: functional, cell-based;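 also: potency for signal decrease marking cytotoxic or nonspecific inhibition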
[15] = HIV-1 AD8 envelope cell-cell fusion blockers – cherry-pick, dose response (AID 652062); type: functional, cell-based;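 also: luciferase signal from cell-cell fusion driven by HIV-1 clade B AD8 Env; potency is for inhibitors of fusion seen as a drop in luminescence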
cells = type: functional, cell-based
[16] = biological target: T6, Nuclear receptor subfamily 0 group B member 1 (Homo sapiens, UniProt P51843); type: functional, cell-based;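 also: HEK293T cells transfected with SF-1 and DAX-1 plus StAR promoter luciferase reporter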
T6 sequence (P51843 whole entry): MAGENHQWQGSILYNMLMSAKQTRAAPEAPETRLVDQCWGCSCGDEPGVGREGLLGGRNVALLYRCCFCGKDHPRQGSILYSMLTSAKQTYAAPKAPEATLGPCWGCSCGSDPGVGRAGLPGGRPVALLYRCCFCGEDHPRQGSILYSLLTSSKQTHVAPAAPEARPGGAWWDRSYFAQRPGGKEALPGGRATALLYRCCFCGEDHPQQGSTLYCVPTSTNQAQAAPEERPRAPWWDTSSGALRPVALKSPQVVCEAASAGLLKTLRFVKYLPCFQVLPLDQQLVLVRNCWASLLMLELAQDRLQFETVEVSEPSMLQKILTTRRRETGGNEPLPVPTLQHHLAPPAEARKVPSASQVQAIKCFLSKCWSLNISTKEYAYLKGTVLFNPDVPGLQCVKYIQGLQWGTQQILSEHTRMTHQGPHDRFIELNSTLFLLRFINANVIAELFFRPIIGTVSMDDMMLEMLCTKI

For Cc1[nH]n(-c2ccccc2)c(=O)c1C(c1ccc(C(=O)O)cc1)c1c(C)[nH]n(-c2ccccc2)c1=O, the AC50 [1] was 0.915 µM (active), the EC50 (Protein RecA) was 0.656 µM (active) and the IC50 (Genome polyprotein) was 20.9 µM (active). For the same compound, the IC50 [2] was > 66 µM (inactive), the IC50 [3] was > 66 µM (inactive) and the IC50 [4] was > 0.528 µM (active).
In the case of O=C(CN1CCN(c2ccccn2)CC1)Nc1ccc(Oc2ccccc2)cc1, the IC50 (Coagulation factor XII) is reported as > 50 µM (inactive), the EC50 (Mu-type opioid receptor) is reported as 92.4 µM (inactive) and the EC50 [5] is reported as 1.17 µM (active).
For CCN(CC)S(=O)(=O)c1cccc(NC(=O)Nc2cccc(C(F)(F)F)c2)c1, the EC50 [6] was > 120 µM (not active), the EC50 [7] was > 120 µM (not active) and the EC50 [8] was > 120 µM (not active). The CC50 [9] was 13.8 µM (active), the AC50 [10] was 3.36 µM (active) and the AC50 (HEK293) was 21.4 µM (active). The AC50 (INS1) was 5.03 µM (active), the AC50 [11] was 0.542 µM (active) and the AC50 [12] was 13.6 µM (active). The AC50 [13] was < 0.26 µM (active), the AC50 (Paired box protein Pax-8) was 14.9 µM (active) and the AC50 [14] was 7.47 µM (active). The AC50 [15] was 10.4 µM (active).
For CCOCC(=O)NC1CCc2cc(OC(=O)COCC)c(OC)c(OC)c2-c2ccc(SC)c(=O)cc21 (stereo not given), the IC50 (cells) was > 67.5 µM (inactive), the IC50 [16] was 0.244 µM (active) and the AC50 (Paired box protein Pax-8) was < 0.26 µM (active).
